Results: the NIST ThermoML archive (doi:10.1016/j.jct.2016.03.026)
Numbers after ± are expanded uncertainties.

Test: xn = mol fraction of the nth substance listed
Conditions: Fluid (supercritical or subcritical phases); for mass density: 263.15 K, Vibrating tube method; for speed of sound: Frequency=5 MHz, Pulse-echo method

## O=C=O [carbon dioxide] + CO
19700 kPa, x1 = 0.97
  mass density: 1052.08 ± 0.8 kg/m3
19725 kPa, x1 = 0.97
  mass density: 1052.13 ± 0.8 kg/m3
19750 kPa, x1 = 0.97
  mass density: 1052.26 ± 0.8 kg/m3
19775 kPa, x1 = 0.97
  mass density: 1052.28 ± 0.8 kg/m3
19800 kPa, x1 = 0.97
  mass density: 1052.34 ± 0.8 kg/m3
19825 kPa, x1 = 0.97
  mass density: 1052.45 ± 0.8 kg/m3
19850 kPa, x1 = 0.97
  mass density: 1052.5 ± 0.8 kg/m3
19875 kPa, x1 = 0.97
  mass density: 1052.59 ± 0.8 kg/m3
19900 kPa, x1 = 0.97
  mass density: 1052.67 ± 0.8 kg/m3
19925 kPa, x1 = 0.97
  mass density: 1052.75 ± 0.8 kg/m3
19950 kPa, x1 = 0.97
  mass density: 1052.83 ± 0.8 kg/m3
19975 kPa, x1 = 0.97
  mass density: 1052.91 ± 0.8 kg/m3
20000 kPa, x1 = 0.97
  mass density: 1052.99 ± 0.8 kg/m3
263.16 K, 3280 kPa, x1 = 0.97
  speed of sound: 626.2 ± 1 m/s
263.16 K, 3800 kPa, x1 = 0.97
  speed of sound: 633.5 ± 1 m/s
263.16 K, 5050 kPa, x1 = 0.97
  speed of sound: 649.7 ± 1 m/s
263.16 K, 6020 kPa, x1 = 0.97
  speed of sound: 661.8 ± 1 m/s
263.16 K, 6170 kPa, x1 = 0.97
  speed of sound: 664.3 ± 1 m/s
263.16 K, 8100 kPa, x1 = 0.97
  speed of sound: 687.5 ± 1 m/s
263.16 K, 10020 kPa, x1 = 0.97
  speed of sound: 706.8 ± 1 m/s
263.16 K, 14960 kPa, x1 = 0.97
  speed of sound: 752.4 ± 1.1 m/s
263.16 K, 19890 kPa, x1 = 0.97
  speed of sound: 792.8 ± 1.1 m/s
263.16 K, 24920 kPa, x1 = 0.97
  speed of sound: 829.4 ± 1.1 m/s
263.16 K, 29960 kPa, x1 = 0.97
  speed of sound: 862.5 ± 1.1 m/s
263.16 K, 34890 kPa, x1 = 0.97
  speed of sound: 892.6 ± 1.2 m/s
263.16 K, 39940 kPa, x1 = 0.97
  speed of sound: 921 ± 1.2 m/s
263.16 K, 44890 kPa, x1 = 0.97
  speed of sound: 947 ± 1.2 m/s
263.16 K, 49990 kPa, x1 = 0.97
  speed of sound: 972.3 ± 1.3 m/s
263.16 K, 54910 kPa, x1 = 0.97
  speed of sound: 995.6 ± 1.3 m/s
263.16 K, 60010 kPa, x1 = 0.97
  speed of sound: 1018.3 ± 1.3 m/s
263.16 K, 65090 kPa, x1 = 0.97
  speed of sound: 1039.8 ± 1.3 m/s
263.16 K, 69970 kPa, x1 = 0.97
  speed of sound: 1059.9 ± 1.4 m/s
263.16 K, 75000 kPa, x1 = 0.97
  speed of sound: 1079.5 ± 1.4 m/s
263.16 K, 80150 kPa, x1 = 0.97
  speed of sound: 1098.9 ± 1.4 m/s
263.16 K, 90130 kPa, x1 = 0.97
  speed of sound: 1134.4 ± 1.5 m/s
263.16 K, 100140 kPa, x1 = 0.97
  speed of sound: 1168 ± 1.5 m/s
263.16 K, 110060 kPa, x1 = 0.97
  speed of sound: 1199.3 ± 1.5 m/s
263.16 K, 119960 kPa, x1 = 0.97
  speed of sound: 1228.9 ± 1.6 m/s
263.16 K, 140000 kPa, x1 = 0.97
  speed of sound: 1284.7 ± 1.6 m/s
263.16 K, 159900 kPa, x1 = 0.97
  speed of sound: 1335.8 ± 1.7 m/s
263.16 K, 179990 kPa, x1 = 0.97
  speed of sound: 1383.3 ± 1.8 m/s
263.16 K, 194490 kPa, x1 = 0.97
  speed of sound: 1415.5 ± 1.8 m/s
263.18 K, 6060 kPa, x1 = 0.7534
  speed of sound: 735.8 ± 1.1 m/s
263.18 K, 9710 kPa, x1 = 0.7534
  speed of sound: 770.9 ± 1.1 m/s
263.18 K, 14730 kPa, x1 = 0.7534
  speed of sound: 813.5 ± 1.1 m/s
263.18 K, 14950 kPa, x1 = 0.9803
  speed of sound: 747.6 ± 1 m/s
263.18 K, 20160 kPa, x1 = 0.7534
  speed of sound: 854.1 ± 1.2 m/s
263.18 K, 24940 kPa, x1 = 0.7534
  speed of sound: 886.4 ± 1.2 m/s
263.18 K, 30090 kPa, x1 = 0.7534
  speed of sound: 918.5 ± 1.2 m/s
263.18 K, 34860 kPa, x1 = 0.9803
  speed of sound: 887.4 ± 1.2 m/s
263.18 K, 35000 kPa, x1 = 0.7534
  speed of sound: 946.9 ± 1.2 m/s
263.18 K, 39910 kPa, x1 = 0.9803
  speed of sound: 916.3 ± 1.2 m/s
263.18 K, 40020 kPa, x1 = 0.7534
  speed of sound: 974 ± 1.3 m/s
263.18 K, 44820 kPa, x1 = 0.7534
  speed of sound: 998.5 ± 1.3 m/s
263.18 K, 44980 kPa, x1 = 0.9803
  speed of sound: 943.5 ± 1.2 m/s
263.18 K, 49950 kPa, x1 = 0.7534
  speed of sound: 1023.2 ± 1.3 m/s
263.18 K, 50170 kPa, x1 = 0.9803
  speed of sound: 969 ± 1.3 m/s
263.18 K, 55000 kPa, x1 = 0.9803
  speed of sound: 992.2 ± 1.3 m/s
263.18 K, 55090 kPa, x1 = 0.7534
  speed of sound: 1046.8 ± 1.4 m/s
263.18 K, 59880 kPa, x1 = 0.7534
  speed of sound: 1067.8 ± 1.4 m/s
263.18 K, 60140 kPa, x1 = 0.9803
  speed of sound: 1015.5 ± 1.3 m/s
